Reference: ChEMBL document CHEMBL4680352, “Rational design and synthesis of 6-aryl-6H-benzo[c]chromenes as non-steroidal progesterone receptor antagonists for use against cancers” (Bioorg Med Chem, 2021)

Assays:
A549 [1] = test: Antiproliferative activity against human A549 cells assessed as inhibition of cell viability at 20 uM after 72 hrs by CCK-8 assay relative to control; assay type: functional
BGC-823 [2] = test: Antiproliferative activity against human BGC-823 cells assessed as inhibition of cell viability at 20 uM after 72 hrs by CCK-8 assay relative to control; assay type: functional
PC-3 [3] = test: Antiproliferative activity against human PC-3 cells assessed as inhibition of cell viability at 20 uM after 72 hrs by CCK-8 assay relative to control; assay type: functional
MDA-MB-231 [4] = test: Antiproliferative activity against human MDA-MB-231 cells assessed as inhibition of cell viability at 20 uM after 72 hrs by CCK-8 assay relative to control; assay type: functional
MCF7 [5] = test: Antiproliferative activity against human MCF7 cells assessed as inhibition of cell viability at 20 uM after 72 hrs by CCK-8 assay relative to control; assay type: functional
A549 [6] = test: Antiproliferative activity against human A549 cells assessed as inhibition of cell viability after 72 hrs by CCK-8 assay; assay type: functional, cell-based; conditions: A549, 72 h
BGC-823 [7] = test: Antiproliferative activity against human BGC-823 cells assessed as inhibition of cell viability after 72 hrs by CCK-8 assay; assay type: functional, cell-based; conditions: BGC-823, 72 h
PC-3 [8] = test: Antiproliferative activity against human PC-3 cells assessed as inhibition of cell viability after 72 hrs by CCK-8 assay; assay type: functional, cell-based; conditions: PC-3, 72 h
MDA-MB-231 [9] = test: Antiproliferative activity against human MDA-MB-231 cells assessed as inhibition of cell viability after 72 hrs by CCK-8 assay; assay type: functional, cell-based; conditions: MDA-MB-231, 72 h
MCF7 [10] = test: Antiproliferative activity against human MCF7 cells assessed as inhibition of cell viability after 72 hrs by CCK-8 assay; assay type: functional, cell-based; conditions: MCF7, 72 h
MCF-10A = test: Cytotoxicity against human MCF-10A cells assessed as inhibition of cell viability after 72 hrs by CCK-8 assay; assay type: cell-based
[11] = Selectivity index, ratio of IC50 for human MCF-10A cells to IC50 for human MCF-7 cells

Row | IC50 (A549 [6]) [µM] | IC50 (BGC-823 [7]) [µM] | IC50 (PC-3 [8]) [µM] | IC50 (MDA-MB-231 [9]) [µM] | IC50 (MCF7 [10]) [µM] | SMILES | inhibition at 20 µM (A549 [1]) [%] | inhibition at 20 µM (BGC-823 [2]) [%] | inhibition at 20 µM (PC-3 [3]) [%] | inhibition at 20 µM (MDA-MB-231 [4]) [%] | inhibition at 20 µM (MCF7 [5]) [%] | IC50 (MCF-10A) [µM] | Ratio IC50 [11]
1 |  |  |  |  |  | COc1ccc2c(c1)-c1ccccc1OC2c1ccccc1 (stereo unspecified) | 32 | 30.5 | 31.8 | 30.6 | 25.6 |  | 
2 |  |  |  |  |  | COc1ccc(C2Oc3ccccc3-c3cc(OC)ccc32)cc1 (stereo unspecified) | 49.6 | 50.6 | 55.4 | 52.7 | 59.6 |  | 
3 |  |  |  |  |  | COc1ccc(C2Oc3ccc(OC)cc3-c3ccccc32)cc1 (stereo unspecified) | 36.2 | 42.5 | 36.3 | 28.2 | 34.7 |  | 
4 |  |  |  |  |  | COc1ccc2c(c1)-c1ccccc1OC2c1ccc(SC)cc1 (stereo unspecified) | 31.8 | 39.4 | 39.7 | 35.3 | 41.4 |  | 
5 | 11.7 | 8.99 | 10.1 | 13.8 | 9.53 | COc1cccc(C2Oc3ccccc3-c3cc(OC)c(OC)cc32)c1 (stereo unspecified) |  |  |  |  |  | 60.3 | 6.33
6 |  |  |  |  |  | COc1ccc(C2Oc3cc(C)ccc3-c3ccccc32)cc1 (stereo unspecified) | 22.6 | 32.9 | 38.1 | 25.6 | 30.3 |  | 
7 |  |  |  |  |  | COc1ccc2c(c1)-c1ccccc1OC2c1ccc(Br)cc1 (stereo unspecified) | 38.8 | 24.1 | 43.9 | 31 | 40.5 |  | 
8 |  |  |  |  |  | COc1ccc(C2Oc3ccc(C)cc3-c3ccccc32)cc1 (stereo unspecified) | 29.4 | 27.6 | 36.3 | 23.2 | 32.9 |  | 
9 | 23.5 | 26.1 | 21.4 | 15.2 | 8.92 | COc1ccc2c(c1)-c1ccccc1OC2c1ccccc1OC (stereo unspecified) |  |  |  |  |  | 61.6 | 6.9
10 |  |  |  |  |  | COc1ccc(C2Oc3ccccc3-c3ccccc32)cc1 (stereo unspecified) | 29.9 | 34.1 | 37 | 21.2 | 34.4 |  | 
11 |  |  |  |  |  | CCOc1ccc(C2Oc3ccccc3-c3cc(OC)ccc32)cc1 (stereo unspecified) | 40.5 | 26.6 | 45 | 28.3 | 41.1 |  | 
12 | 17 | 9.23 | 7.86 | 22.5 | 15.2 | COc1ccc2c(c1)-c1ccccc1OC2c1cccc(OC)c1OC (stereo unspecified) |  |  |  |  |  | 47.9 | 3.15
13 |  |  |  |  | 24 | CC#C[C@]1(O)CC[C@H]2[C@@H]3CCC4=CC(=O)CCC4=C3[C@@H](c3ccc(N(C)C)cc3)C[C@@]21C [MIFEPRISTONE] |  |  |  |  |  |  | 
14 |  |  |  |  |  | COc1ccc(C2Oc3ccccc3-c3ccc(OC)cc32)cc1 (stereo unspecified) | 43.6 | 47.1 | 44.7 | 43.2 | 45.5 |  | 
15 |  |  |  |  |  | CCOc1ccc(C2Oc3ccccc3-c3ccccc32)cc1 (stereo unspecified) | 34.9 | 26.4 | 34 | 35.6 | 32 |  | 
16 |  |  |  |  |  | c1ccc2c(c1)OC(c1cccc3ccccc13)c1ccccc1-2 (stereo unspecified) | 31.5 | 26.1 | 34 | 30.6 | 26.4 |  | 
17 |  |  |  |  |  | COc1ccc2c(c1)-c1ccccc1OC2c1ccc(O[Si](C)(C)C(C)(C)C)cc1 (stereo unspecified) | 31.2 | 25.5 | 36.5 | 31 | 31.4 |  | 
18 |  |  |  |  |  | COc1ccc2c(c1)-c1ccccc1OC2c1cccc(C)c1 (stereo unspecified) | 34.4 | 32 | 42.3 | 24.9 | 33.8 |  | 
19 |  |  |  |  |  | COc1ccc2c(c1)-c1ccccc1OC2c1ccc(Cl)cc1 (stereo unspecified) | 36 | 37 | 41.1 | 32.4 | 35.6 |  | 
20 |  |  |  |  |  | COc1ccc(C2Oc3ccc(Br)cc3-c3ccccc32)cc1 (stereo unspecified) | 28.9 | 37.8 | 36.1 | 36.1 | 26.6 |  | 
21 |  |  |  |  |  | COc1ccc2c(c1)-c1ccccc1OC2c1cccs1 (stereo unspecified) | 43.9 | 28.2 | 53.7 | 38.6 | 53.1 |  | 
22 |  |  |  |  |  | COc1ccc2c(c1)-c1ccccc1OC2c1ccc(C)cc1 (stereo unspecified) | 31.1 | 37.4 | 38.9 | 35.7 | 40.4 |  | 
23 |  |  |  |  |  | Cc1ccc(C2Oc3ccccc3-c3ccccc32)cc1 (stereo unspecified) | 23.5 | 25 | 26 | 23.7 | 30.2 |  | 
24 |  |  |  |  |  | c1ccc(C2Oc3ccccc3-c3ccccc32)cc1 (stereo unspecified) | 23.8 | 18.8 | 19.2 | 27.2 | 25.3 |  | 
25 | 17 | 13.2 | 14.3 | 18.6 | 9.94 | COc1cccc(C2Oc3ccccc3-c3cc(OC)ccc32)c1 (stereo unspecified) | 56.3 | 51.9 | 57 | 66.1 | 69.4 | 58.5 | 5.88
26 | 8.54 | 8.52 | 9.62 | 7.41 | 9.29 | COc1ccc2c(c1)-c1ccccc1OC2c1ccccc1C (stereo unspecified) | 60.9 | 64.2 | 66 | 59.8 | 69.7 | 44.6 | 4.8
